Reference: patent US6479487B1, “6, 9-disubstituted 2-[trans-(4-aminocyclohexyl)amino] purines” (Aventis Pharmaceuticals Inc., priority 1998, dated 2002)
Several values for one entry are separate records, joined by “and”; a condition that tells them apart may be missing. Equal values may be shown once. Where a name gives a salt, the structure may show the parent alone. Read-outs that look alike come from different tables or passages of the source.

Key:
[1] = molecular target: T1, cdk2/cyclin E (Homo sapiens, UniProt P24941); experiment: Cyclin-Dependent Kinase 2 Assay (cdk2/cyclin E, GST-Rb substrate); format: biochemical; conditions: recombinant cdk2/cyclin E, 10 μM ATP, 30 min at 30° C., several values in a cell = separate determinations, read-out: CDK-2 Inhibition IC50
T1 construct: made in house; host or cells: insect cells (baculovirus co-infection)
Protocol: Substrate: GST-Rb as described above for cdk4/cyclin D1
Assay conditions for cdk2/cyclin E were identical to those for cdk4/cyclin D1 including the substrate. The concentration of recombinant cdk2/cyclin E in the assay was 0.1 μg per 100 μl assay. Incubation was for 30 min at 30° C.

[2] = molecular target: T2, cdk4/cyclin D1 (Homo sapiens, UniProt P11802); experiment: Cyclin-dependent Kinase 4 Assay (cdk4/cyclin D1, GST-Rb substrate); format: biochemical; conditions: cdk4/cyclin D1 insect cell lysate, 10 μM ATP, 30 min at 37° C., several values = separate determinations, read-out: CDK4 Inhibition IC50
T2 construct: made in house; host or cells: Sf9 insect cells (Bac-to-Bac baculovirus, pFastBac)
T2 sequence (P11802 whole entry): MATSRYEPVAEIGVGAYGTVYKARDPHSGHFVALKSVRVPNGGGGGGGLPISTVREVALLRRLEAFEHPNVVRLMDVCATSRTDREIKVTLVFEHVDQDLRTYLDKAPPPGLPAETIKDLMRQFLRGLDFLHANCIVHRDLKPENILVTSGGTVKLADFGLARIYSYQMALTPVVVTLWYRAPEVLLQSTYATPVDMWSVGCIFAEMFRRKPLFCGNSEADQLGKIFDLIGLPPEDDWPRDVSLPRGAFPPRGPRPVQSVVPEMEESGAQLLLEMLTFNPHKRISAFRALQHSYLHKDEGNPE
T2 sequence (P24385 whole entry partner): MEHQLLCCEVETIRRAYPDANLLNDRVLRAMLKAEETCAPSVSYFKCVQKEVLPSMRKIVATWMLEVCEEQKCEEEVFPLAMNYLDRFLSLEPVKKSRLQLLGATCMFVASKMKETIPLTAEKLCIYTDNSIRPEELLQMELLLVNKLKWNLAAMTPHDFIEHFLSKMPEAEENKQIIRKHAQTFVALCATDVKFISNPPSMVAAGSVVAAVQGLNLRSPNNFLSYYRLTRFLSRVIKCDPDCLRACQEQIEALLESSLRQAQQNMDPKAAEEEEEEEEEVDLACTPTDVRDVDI
Outline: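 IC50 against cdk4 measured by scintillation counting of bead-bound GST-Rb (0.5 μg) after filtration and four TNEN washes. Reaction was 30 min at 37 °C in HEPES pH 7.5 buffer with 10 mM MgCl2 and 1 mM EGTA. Enzyme source was 0.1 μg Sf9 lysate coinfected with cdk4 and cyclin D1.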

[3] = system: MCF-7; experiment: In vitro tumor cell proliferation, MCF-7; format: cell-based, human; conditions: sulforhodamine B or CyQUANT assay, read-out: In vitro Tumor Cell Proliferation (IC50, μM) Breast MCF-7
Protocol: (§1) The proliferation of tumor cells was measured using a sulforhodamine B assay as described in Skehan, P., et al., J. Natl. Cancer Inst. […] Tumor cells were harvested with trypsin-EDTA, cells that excluded trypan blue were counted, added to 96-well plates and incubated overnight at 37° C. Drug was added to the wells following dilution in culture medium. Three days later, the medium was removed and replenished with medium containing fresh drug and incubated an additional 4 days. The cells were then fixed with 0.1 ml 10% trichloroacetic acid for 60 min at 4° C. The plates were rinsed five times with tap water, air-dried and stained for 30 min with 0.4% sulforhodamine B in 1% acetic acid and air-dried.
(§2) Alternatively, the CyQUANT cell proliferation assay was used to quantitate cell proliferation.
(§3) Alternatively, the CyQUANT cell proliferation assay was used to quantify tumor cell proliferation. Tumor cells were harvested with trypsin-EDTA, cells that excluded trypan blue were counted, added to 96-well plates and incubated overnight at 37° C. Drug was added to the wells following dilution in culture medium. Three days later the medium was removed and the plates frozen at −80° C. for at least 30 minutes.
MCF7 is a human breast adenocarcinoma, hormone-dependent (HTB 22);

[4] = system: HT-29; experiment: In vitro tumor cell proliferation, HT-29; format: cell-based, human; conditions: many values given with an undefined *, read-out: In vitro Tumor Cell Proliferation (IC50, μM) Colon HT-29
Outline: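 Growth was quantified either with CyQUANT, plates frozen at −80° C after 3 days of drug, or by sulforhodamine B staining of TCA-fixed cells after 3 days of drug plus 4 days with fresh drug. Trypan blue-excluding HT-29 cells were plated overnight at 37° C before dosing.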

[5] = system: HCT-15; experiment: In vitro tumor cell proliferation, HCT-15; format: cell-based, human; conditions: read-out: In vitro Tumor Cell Proliferation (IC50, μM) Colon HCT-15
Protocol: as §1, §2, §3

[6] = system: MDA-MB-231; experiment: In vitro tumor cell proliferation, MDA-MB-231; format: cell-based, human; conditions: sulforhodamine B or CyQUANT assay, many values given with an undefined *, read-out: In vitro Tumor Cell Proliferation (IC50, μM) Breast MDA-MB-231
Outline: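 Proliferation quantified by SRB staining of TCA-fixed cells after 3 days of drug plus 4 days with replenished drug, following overnight attachment at 37 °C.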

[7] = system: A549; experiment: In vitro tumor cell proliferation, A549; format: cell-based, human; conditions: many values given with an undefined *, read-out: In vitro Tumor Cell Proliferation (IC50, μM) Lung A549
Outline: (§4)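 Growth was quantified by sulforhodamine B staining of TCA-fixed cells after 3 days of drug plus 4 more days with fresh drug, or by CyQUANT after 3 days of drug and freezing at −80° C. Counted viable cells were plated and incubated overnight at 37° C before drug.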

[8] = system: DMS-114; experiment: In vitro tumor cell proliferation, DMS-114; format: cell-based, human; conditions: many values given with an undefined *, read-out: In vitro Tumor Cell Proliferation (IC50, μM) Lung DMS-114
Outline: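 Human small cell lung carcinoma DMS-114 cells plated overnight, then drug-treated for 3 days, medium and drug renewed, and incubated 4 more days. Growth read by sulforhodamine B staining after TCA fixation; alternatively by CyQUANT after 3 days' drug exposure and freezing at −80 °C.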

[9] = system: PC-3; experiment: In vitro tumor cell proliferation, PC-3; format: cell-based, human; conditions: many values given with an undefined *, read-out: In vitro Tumor Cell Proliferation (IC50, μM) Prostate PC-3
Outline: as §4

[10] = system: DU145; experiment: In vitro tumor cell proliferation, DU145; format: cell-based, human; conditions: many values given with an undefined *, read-out: In vitro Tumor Cell Proliferation (IC50, μM) Prostate DU145
Outline: as §4

[11] = Homo sapiens, MDA-MB-231, MDA-MB-231

| IC50 [1] | IC50 [2] | IC50 ([3]; Homo sapiens, MCF7, MCF-7) [µM] | IC50 ([4]; Homo sapiens, HT-29, HT-29) [µM] | IC50 ([5]; Homo sapiens, HCT-15, HCT-15) [µM] | IC50 ([3]; MCF-7, dihydrochloride) [µM] | IC50 [6, 11] [µM] | IC50 ([6]; MDA-MB-231, dihydrochloride) [µM] | IC50 ([4]; HT-29, dihydrochloride) [µM] | IC50 ([5]; HCT-15, dihydrochloride) [µM] | IC50 ([7]; A549, dihydrochloride) [µM] | IC50 ([7]; Homo sapiens, A549, A549) [µM] | IC50 ([8]; DMS-114, dihydrochloride) [µM] | IC50 ([8]; Homo sapiens, DMS-114, DMS-114) [µM] | IC50 ([9]; Homo sapiens, PC-3, PC-3) [µM] | IC50 ([9]; PC-3, dihydrochloride) [µM] | IC50 ([10]; DU145, dihydrochloride) [µM] | IC50 ([10]; Homo sapiens, DU-145, DU145) [µM] | Structure (SMILES) | other results |
| --- | --- | --- | --- | --- | --- | --- | --- | --- | --- | --- | --- | --- | --- | --- | --- | --- | --- | --- | --- |
| 0.12 µM and 0.081 µM | 2 µM and 2.7 µM and 1.7 µM | 1.2 | 1.5 | 2.4 | 1.6 | 1.4 | 1.5 | 1.6 | 2.5 | 0.9 | 0.97 | 0.86 | 1.1 | 0.96 | 1 | 1.5 | 1.4 | N[C@H]1CC[C@H](Nc2nc(NCc3ccc(C(F)(F)F)cc3)c3ncn(C4CCCC4)c3n2)CC1 [Example 1, 2-[Trans-(4-aminocyclohexyl)amino]-6-[(4-trifluorobenzyl)amino]-9-cyclopentylpurine dihydrochloride] | – |
| 0.23 µM | 4.5 µM and 6.2 µM | – | 7.3 | 16 | – | 8.6 | 11 | 8.5 | – | 3.5 | 5.6 | – | 5.4 | 4.4 | 3.5 | 6.7 | 3.5 | COc1ccccc1CNc1nc(N[C@H]2CC[C@H](N)CC2)nc2c1ncn2C1CCCC1 [Example 12, 2-[Trans-(4-aminocyclohexyl)amino]-6-[(2-methoxybenzyl)amino]-9-cyclopentylpurine dihydrochloride] | – |
| 0.05 µM | 2.9 µM | 2 | 3.1 | – | – | 2.2 | 2.6 | 3.4 | – | – | 1.7 | 1.4 | 1 | 1.9 | 1.3 | 1.7 | 0.99 | COc1cccc(CNc2nc(N[C@H]3CC[C@H](N)CC3)nc3c2ncn3C2CCCC2)c1OC [Example 13, 2-[Trans-(4-aminocyclohexyl)amino]-6-[(2,3-dimethoxybenzyl)amino]-9-cyclopentylpurine dihydrochloride] | – |
| 0.26 µM | 6.4 µM and 6.9 µM | – | 2.6 | 4 | – | 4.5 | 4.3 | 3 | 3.7 | – | 1.9 | 0.95 | 0.85 | 1.1 | 1.7 | 1.7 | 0.95 | N[C@H]1CC[C@H](Nc2nc(NCc3ccccc3C(F)(F)F)c3ncn(C4CCCC4)c3n2)CC1 [Example 25, 2-[Trans-(4-aminocyclohexyl)amino]-6-[(2-trifluorobenzyl)amino]-9-cyclopentylpurine dihydrochloride] | – |

Further lines, the molecule ahead of its results:

| Structure (SMILES) | IC50 [1] | IC50 [2] | IC50 ([3]; Homo sapiens, MCF7, MCF-7) [µM] | IC50 ([4]; Homo sapiens, HT-29, HT-29) [µM] | IC50 ([5]; Homo sapiens, HCT-15, HCT-15) [µM] | IC50 ([3]; MCF-7, dihydrochloride) [µM] | IC50 [6, 11] [µM] | IC50 ([6]; MDA-MB-231, dihydrochloride) [µM] | IC50 ([4]; HT-29, dihydrochloride) [µM] | IC50 ([5]; HCT-15, dihydrochloride) [µM] | IC50 ([7]; A549, dihydrochloride) [µM] | IC50 ([7]; Homo sapiens, A549, A549) [µM] | IC50 ([8]; DMS-114, dihydrochloride) [µM] | IC50 ([8]; Homo sapiens, DMS-114, DMS-114) [µM] | IC50 ([9]; Homo sapiens, PC-3, PC-3) [µM] | IC50 ([9]; PC-3, dihydrochloride) [µM] | IC50 ([10]; DU145, dihydrochloride) [µM] | IC50 ([10]; Homo sapiens, DU-145, DU145) [µM] | other results |
| --- | --- | --- | --- | --- | --- | --- | --- | --- | --- | --- | --- | --- | --- | --- | --- | --- | --- | --- | --- |
| N[C@H]1CC[C@H](Nc2nc(NCc3cccc(I)c3)c3ncn(C4C=CCC4)c3n2)CC1 (relative stereo) [Example 35, 2-[Trans-(4-aminocyclohexyl)amino]-6-[(3-iodobenzyl)amino]-9-(2-cyclopentenyl)purine hydrochloride] | 0.49 µM and 0.14 µM | 9.4 µM and 7.7 µM | 2.9 | 2.1 | 5.7 | – | – | – | – | – | – | – | – | – | – | – | – | – | IC50 ([3]; MCF-7, hydrochloride): 1.9 µM; IC50 ([4]; HT-29, hydrochloride): 1.9 µM; IC50 ([5]; HCT-15, hydrochloride): 4 µM |
| COc1ccc(CNc2nc(N[C@H]3CC[C@H](N)CC3)nc3c2ncn3C2CCCC2)cc1 [Example 8, 2-[Trans-(4-aminocyclohexyl)amino]-6-[(4-methoxybenzyl)amino]-9-cyclopentylpurine dihydrochloride] | 30 nM (2×) and 48 nM and 22 nM | 6.6 µM and 3.2 µM | – | 1.3 | 4.5 | – | 0.88 | 1.2 | 1.4 | 3.5 | 1.1 | 0.8 | 0.89 | 0.8 | 0.98 | 0.63 | 1.2 | 0.88 | – |
| COc1ccc(CNc2nc(N[C@H]3CC[C@H](N)CC3)nc3c2ncn3C2CCCC2)c(OC)c1 [Example 17, 2-[Trans-(4-aminocyclohexyl)amino]-6-[(2,4-dimethoxybenzyl)amino]-9-cyclopentylpurine dihydrochloride] | 0.35 µM | – | – | 6.8 | 9.9 | – | 6.1 | 7.9 | – | – | 7.5 | 6.8 | 5.8 | 5.3 | 4 | – | 6.9 | 3.6 | – |
| COc1cc(CNc2nc(N[C@H]3CC[C@H](N)CC3)nc3c2ncn3C2CCCC2)cc(OC)c1 [Example 28, 2-[Trans-(4-aminocyclohexyl)amino]-6-[(3 5-dimethoxybenzyl)amino]-9-cyclopentylpurine dihydrochloride] | 0.48 µM | 2.2 µM and 2.6 µM | 5.6 | 12 | > 20 | 11 | 12 | – | – | – | – | 1.9 | 7.7 | 6.1 | 4.8 | 6.4 | 9.1 | 6.4 | – |
| COc1ccc(CNc2nc(N[C@H]3CC[C@H](N)CC3)nc3c2ncn3C2CCCC2)cc1OC [Example 34, 2-[Trans-(4-aminocyclohexyl)amino]-6-[3,4-dimethoxybenzyl)amino]-9-cyclopentylpurine dihydrochloride] | 0.08 µM | 1.2 µM and 0.8 µM | 2.3 | 3.4 | 7.7 | 3.5 | 3.4 | 5.8 | 6 | – | 4.8 | 3.4 | 4.5 | 4.2 | 1 | 2 | 4.3 | 2.7 | – |
